From publication PMC10053710, “Influence of Lipidation Pattern of the KR12 Fragment of Peptide LL-37 on Its Antibacterial and Hemolytic Activities” (International Journal of Molecular Sciences, 2023)
≈ marks a conversion by molar mass, not a printed value. Where a SMILES comes first, the peptide text is derived from it. The star is where a group is joined. Octanoyl = CCCCCCCC(=O)*

Assays:
[1] = 18 h
[2] = tested on: human red blood cells (hRBCs); experiment: Hemolysis assay; details: 4% (v/v) erythrocytes in PBS, peptides 1–512 µg/mL, 1 h at 37 °C, hemoglobin at 540 nm, 100% = 1% Triton-X 100; ≥ means less than 5% hemolysis up to 512 µg/mL
Method: To facilitate a comparison of hemolytic activity between the analogs, MHC5 values were determined. MHC5 is the minimum hemolytic concentration of the compounds that caused the 5% hemolysis of hRBCs.
Briefly, the fresh hRBCs with EDTA as anticoagulant were rinsed three times with PBS through centrifugation at 800× g for 10 min and resuspended in PBS. The serial dilution of peptides (1–512 µg/mL) was prepared in PBS on 96-well plates. Then, the stock RBCs solution was added to the plates to reach a final volume of 100 µL with a 4% concentration of erythrocytes (v/v). The control wells for 0 (RBCs in PBS) and 100% (RBCs in 1% Triton-X 100) hemolysis were also prepared. Then, the plates were incubated for 1 h at 37 °C and centrifuged at 800× g for 10 min at 4 °C (Sorvall ST 16R Centrifuge, Thermo Scientific, Waltham, MA, USA). After centrifugation, the supernatant was carefully transferred to new microtiter plates and the release of hemoglobin was measured at 540 nm (Multiskan™ GO Microplate Spectrophotometer, Thermo Scientific, Waltham, MA, USA). The percentage of hemolysis was calculated based on wells with 100% hemolysis.

[3] = tested on: Klebsiella aerogenes ATCC 13048; format: cell-based; details: ATCC 13048, 18 h
Method: (§1) Tests of the antibacterial activity were carried out as we just described. Briefly, for assays, the following strains of ESKAPE bacteria were chosen: Acinetobacter baumannii ATCC BAA-1605, Enterococcus faecium ATCC 700221, Klebsiella aerogenes ATCC 13048 (formerly Enterobacter aerogenes), Klebsiella pneumoniae ATCC 700603, and Pseudomonas aeruginosa ATCC 9027. Moreover, the reference strains of Staphylococcus aureus were used: S. aureus ATCC 25923, S. aureus ATCC 6538, S. aureus ATCC 33591 (MRSA), S. aureus ATCC 9144, and S. aureus ATCC 12598. Before experiments, all the strains were stored at −80 °C in Roti®-Store cryo vials (Carl Roth GmbH, Karlsruhe, Germany). To evaluate the activity of the compounds, bacteria were transferred into fresh Mueller–Hinton medium (Becton Dickinson, Warszawa, Poland) and incubated for 24 h at 37 °C. In the next step, bacterial inoculums were seeded on Mueller–Hinton agar plates (BioMaxima SA, Lublin, Poland) and incubated again for 24 h. The MIC values were determined using the broth microdilution method according to the Clinical and Laboratory Standards Institute Protocol. The initial inoculums of bacteria (0.5 × 10^5 colony forming units (CFU)/mL) prepared in Mueller–Hinton broth were exposed to the ranging concentrations of peptides (1–512 µg/mL). The experiments were conducted on 96-well microtiter plates, with a final volume of 100 µL. The inoculum densities were checked spectrophotometrically (Multiskan™ GO Microplate Spectrophotometer, Thermo Scientific, Waltham, MA, USA) at 600 nm. The results were read after incubation for 18 h at 37 °C. The MIC values were the lowest concentration at which a visible growth of microorganisms was inhibited. All experiments were conducted in triplicate. Moreover, positive (growth) and negative (sterility) controls were included.

[4] = tested on: Klebsiella pneumoniae ATCC 700603; format: cell-based; details: ATCC 700603, 18 h
Method: as §1

[5] = tested on: Enterococcus faecium ATCC 700221; format: cell-based; details: ATCC 700221, 18 h
Method: as §1

[6] = tested on: Pseudomonas aeruginosa ATCC 9027; format: cell-based; details: ATCC 9027, 18 h
Method: as §1

S. aureus ATCC 25923 = format: cell-based, Staphylococcus aureus; details: ATCC 25923, 18 h
Method: as §1

[7] = tested on: S. aureus ATCC 33591 (MRSA); format: cell-based, Staphylococcus aureus; details: ATCC 33591, 18 h
Method: as §1

S. aureus ATCC 6538 = format: cell-based, Staphylococcus aureus; details: ATCC 6538, 18 h
Method: as §1

S. aureus ATCC 12598 = format: cell-based, Staphylococcus aureus; details: ATCC 12598, 18 h
Method: as §1

S. aureus ATCC 9144 = format: cell-based, Staphylococcus aureus; details: ATCC 9144, 18 h
Method: as §1

| MIC A. baumannii [1] [µg/mL] | MIC K. aerogenes [3] [µg/mL] | MIC K. pneumoniae [4] [µg/mL] | MIC E. faecium [5] [µg/mL] | MIC P. aeruginosa [6] [µg/mL] | MIC S. aureus 25923 (S. aureus ATCC 25923) [µg/mL] | MIC S. aureus 33591 [7] [µg/mL] | MIC S. aureus 6538 (S. aureus ATCC 6538) [µg/mL] | MIC S. aureus 12598 (S. aureus ATCC 12598) [µg/mL] | MIC S. aureus 9144 (S. aureus ATCC 9144) [µg/mL] | SMILES | MHC5 (minimum hemolytic concentration causing 5% hemolysis of hRBCs) [2] [µg/mL] |
| --- | --- | --- | --- | --- | --- | --- | --- | --- | --- | --- | --- |
| 8 (≈ 4.71 µM) | 4 (≈ 2.36 µM) | 8 (≈ 4.71 µM) | 4 (≈ 2.36 µM) | 16 (≈ 9.43 µM) | 4 (≈ 2.36 µM) | 4 (≈ 2.36 µM) | 2 (≈ 1.18 µM) | 4 (≈ 2.36 µM) | 4 (≈ 2.36 µM) | CCCCCCCC(=O)N[C@@H](CCCCN)C(=O)N[C@@H](CCCNC(=N)N)C(=O)N[C@H](C(=O)N[C@H](C(=O)N[C@@H](CCC(N)=O)C(=O)N[C@@H](CCCNC(=N)N)C(=O)N[C@H](C(=O)N[C@@H](CCCCN)C(=O)N[C@@H](CC(=O)O)C(=O)N[C@@H](Cc1ccccc1)C(=O)N[C@@H](CC(C)C)C(=O)N[C@@H](CCCNC(=N)N)C(N)=O)[C@@H](C)CC)C(C)C)[C@@H](C)CC [II, C8^α-KR12-NH2] (Octanoyl-KRIVQRIKDFLR-NH2) | 64 |
| 32 (≈ 18.9 µM) | 64 (≈ 37.7 µM) | 32 (≈ 18.9 µM) | 4 (≈ 2.36 µM) | 64 (≈ 37.7 µM) | 32 (≈ 18.9 µM) | 64 (≈ 37.7 µM) | 8 (≈ 4.71 µM) | 64 (≈ 37.7 µM) | 32 (≈ 18.9 µM) | CCCCCCCC(=O)NCCCC[C@H](N)C(=O)N[C@@H](CCCNC(=N)N)C(=O)N[C@H](C(=O)N[C@H](C(=O)N[C@@H](CCC(N)=O)C(=O)N[C@@H](CCCNC(=N)N)C(=O)N[C@H](C(=O)N[C@@H](CCCCN)C(=O)N[C@@H](CC(=O)O)C(=O)N[C@@H](Cc1ccccc1)C(=O)N[C@@H](CC(C)C)C(=O)N[C@@H](CCCNC(=N)N)C(N)=O)[C@@H](C)CC)C(C)C)[C@@H](C)CC [III, C8^ε-KR12-NH2] (H-K(Octanoyl)RIVQRIKDFLR-NH2) |  |
| 8 (≈ 4.38 µM) | 32 (≈ 17.5 µM) | 16 (≈ 8.77 µM) | 4 (≈ 2.19 µM) | 32 (≈ 17.5 µM) | 128 (≈ 70.1 µM) | 64 (≈ 35.1 µM) | 8 (≈ 4.38 µM) | 32 (≈ 17.5 µM) | 16 (≈ 8.77 µM) | CCCCCCCC(=O)N[C@@H](CCCCN)C(=O)N[C@@H](CCCCN)C(=O)N[C@@H](CCCNC(=N)N)C(=O)N[C@H](C(=O)N[C@H](C(=O)N[C@@H](CCC(N)=O)C(=O)N[C@@H](CCCNC(=N)N)C(=O)N[C@H](C(=O)N[C@@H](CCCCN)C(=O)N[C@@H](CC(=O)O)C(=O)N[C@@H](Cc1ccccc1)C(=O)N[C@@H](CC(C)C)C(=O)N[C@@H](CCCNC(=N)N)C(N)=O)[C@@H](C)CC)C(C)C)[C@@H](C)CC [IV, C8^α-Lys-KR12-NH2] (Octanoyl-KKRIVQRIKDFLR-NH2) | 256 |
| 512 (≈ 281 µM) | 512 (≈ 281 µM) | >512 | 16 (≈ 8.78 µM) | >512 | 512 (≈ 281 µM) | 256 (≈ 140 µM) |  | 256 (≈ 140 µM) | 256 (≈ 140 µM) | CCCCCCCC(=O)NCCCC[C@H](NC(=O)CCCCCCC)C(=O)N[C@@H](CCCNC(=N)N)C(=O)N[C@H](C(=O)N[C@H](C(=O)N[C@@H](CCC(N)=O)C(=O)N[C@@H](CCCNC(=N)N)C(=O)N[C@H](C(=O)N[C@@H](CCCCN)C(=O)N[C@@H](CC(=O)O)C(=O)N[C@@H](Cc1ccccc1)C(=O)N[C@@H](CC(C)C)C(=O)N[C@@H](CCCNC(=N)N)C(N)=O)[C@@H](C)CC)C(C)C)[C@@H](C)CC [IX, C8^α,C8^ε-KR12-NH2] (Octanoyl-K(Octanoyl)RIVQRIKDFLR-NH2) |  |
| 32 (≈ 17.5 µM) | 64 (≈ 35.1 µM) | 16 (≈ 8.77 µM) | 4 (≈ 2.19 µM) | 16 (≈ 8.77 µM) | 64 (≈ 35.1 µM) | 64 (≈ 35.1 µM) | 8 (≈ 4.38 µM) | 32 (≈ 17.5 µM) | 32 (≈ 17.5 µM) | CCCCCCCC(=O)NCCCC[C@H](N)C(=O)N[C@@H](CCCCN)C(=O)N[C@@H](CCCNC(=N)N)C(=O)N[C@H](C(=O)N[C@H](C(=O)N[C@@H](CCC(N)=O)C(=O)N[C@@H](CCCNC(=N)N)C(=O)N[C@H](C(=O)N[C@@H](CCCCN)C(=O)N[C@@H](CC(=O)O)C(=O)N[C@@H](Cc1ccccc1)C(=O)N[C@@H](CC(C)C)C(=O)N[C@@H](CCCNC(=N)N)C(N)=O)[C@@H](C)CC)C(C)C)[C@@H](C)CC [V, C8^ε-Lys-KR12-NH2] (H-K(Octanoyl)KRIVQRIKDFLR-NH2) | 256 |
| 16 (≈ 8.77 µM) | 64 (≈ 35.1 µM) | 32 (≈ 17.5 µM) | 4 (≈ 2.19 µM) | 32 (≈ 17.5 µM) | 64 (≈ 35.1 µM) | 32 (≈ 17.5 µM) | 64 (≈ 35.1 µM) | 32 (≈ 17.5 µM) | 32 (≈ 17.5 µM) | CCCCCCCC(=O)NCCCC[C@H](NC(=O)[C@H](CCCNC(=N)N)NC(=O)[C@H](CC(C)C)NC(=O)[C@H](Cc1ccccc1)NC(=O)[C@H](CC(=O)O)NC(=O)[C@H](CCCCN)NC(=O)[C@@H](NC(=O)[C@H](CCCNC(=N)N)NC(=O)[C@H](CCC(N)=O)NC(=O)[C@@H](NC(=O)[C@@H](NC(=O)[C@H](CCCNC(=N)N)NC(=O)[C@@H](N)CCCCN)[C@@H](C)CC)C(C)C)[C@@H](C)CC)C(N)=O [VI, KR12-Lys^ε(C8)-NH2] (H-KRIVQRIKDFLRK(Octanoyl)-NH2) |  |
| 32 (≈ 19.2 µM) | 64 (≈ 38.3 µM) | 128 (≈ 76.7 µM) | 16 (≈ 9.59 µM) | 64 (≈ 38.3 µM) | 128 (≈ 76.7 µM) | 512 (≈ 307 µM) | 64 (≈ 38.3 µM) | 512 (≈ 307 µM) | 512 (≈ 307 µM) | CCCCCCCC(=O)NCCCC[C@H](NC(=O)[C@H](CC(C)C)NC(=O)[C@H](Cc1ccccc1)NC(=O)[C@H](CC(=O)O)NC(=O)[C@H](CCCCN)NC(=O)[C@@H](NC(=O)[C@H](CCCNC(=N)N)NC(=O)[C@H](CCC(N)=O)NC(=O)[C@@H](NC(=O)[C@@H](NC(=O)[C@H](CCCNC(=N)N)NC(=O)[C@@H](N)CCCCN)[C@@H](C)CC)C(C)C)[C@@H](C)CC)C(N)=O [VII, [Lys^ε(C8)]^12KR12-NH2] (H-KRIVQRIKDFLK(Octanoyl)-NH2) |  |
| 8 (≈ 4.71 µM) | 32 (≈ 18.9 µM) | 32 (≈ 18.9 µM) | 8 (≈ 4.71 µM) | 64 (≈ 37.7 µM) | 32 (≈ 18.9 µM) | 32 (≈ 18.9 µM) | 4 (≈ 2.36 µM) | 32 (≈ 18.9 µM) | 16 (≈ 9.43 µM) | CCCCCCCC(=O)NCCCC[C@H](NC(=O)[C@@H](NC(=O)[C@H](CCCNC(=N)N)NC(=O)[C@H](CCC(N)=O)NC(=O)[C@@H](NC(=O)[C@@H](NC(=O)[C@H](CCCNC(=N)N)NC(=O)[C@@H](N)CCCCN)[C@@H](C)CC)C(C)C)[C@@H](C)CC)C(=O)N[C@@H](CC(=O)O)C(=O)N[C@@H](Cc1ccccc1)C(=O)N[C@@H](CC(C)C)C(=O)N[C@@H](CCCNC(=N)N)C(N)=O [VIII, [Lys^ε(C8)]^8KR12-NH2] (H-KRIVQRIK(Octanoyl)DFLR-NH2) | 64 |
